Results on one substance are retold here after patent publication US7517646B2, “Functional molecule and process for producing the same” (Fujitsu Limited, priority 2002, dated 2009).

This data set addresses human albumin (Homo sapiens, UniProt P02768). Briefly: affinity column filled with beads bound with human albumin; binding of the selected functional molecule. Particulars: functional molecule selected from the random polymer pool N20-M20-N20 on a human albumin affinity column. As for the experimental part:
First, an affinity column, which was filled with beads bound with human albumin as the target, was prepared and a solution containing the random polymer pool was passed through this column to leave at a specific condition and, then, the modified oligonucleotide sequence showing the affinity to the target adsorbed to the column (FIG. 3B). Subsequently, remained components other than the remained oligonucleotide sequence were removed by washing sufficiently with a buffer solution and the solution containing human albumin was passed through the column to select and collect the oligonucleotide containing the modified oligonucleotide random sequence (FIG. 3C). The step described above is the selecting step.
This selected modified oligonucleotide sequence was amplified by PCR followed by cloning to know the base sequence of the DNA. As the result, a portion of the base sequence of the determined modified oligonucleotide was “ATGCTCTAGCCCCT” (SEQ ID NO: 1) (FIG. 3D). The step described above is the determining step.
Translating this base sequence on the basis of the relation table presented “AU1GC6U4CU3AGC6C3CC5T” resulting in identification of a structure of the functional molecule (FIG. 3D). The step described above is the translating step.

Chain of human albumin (P02768 25-609): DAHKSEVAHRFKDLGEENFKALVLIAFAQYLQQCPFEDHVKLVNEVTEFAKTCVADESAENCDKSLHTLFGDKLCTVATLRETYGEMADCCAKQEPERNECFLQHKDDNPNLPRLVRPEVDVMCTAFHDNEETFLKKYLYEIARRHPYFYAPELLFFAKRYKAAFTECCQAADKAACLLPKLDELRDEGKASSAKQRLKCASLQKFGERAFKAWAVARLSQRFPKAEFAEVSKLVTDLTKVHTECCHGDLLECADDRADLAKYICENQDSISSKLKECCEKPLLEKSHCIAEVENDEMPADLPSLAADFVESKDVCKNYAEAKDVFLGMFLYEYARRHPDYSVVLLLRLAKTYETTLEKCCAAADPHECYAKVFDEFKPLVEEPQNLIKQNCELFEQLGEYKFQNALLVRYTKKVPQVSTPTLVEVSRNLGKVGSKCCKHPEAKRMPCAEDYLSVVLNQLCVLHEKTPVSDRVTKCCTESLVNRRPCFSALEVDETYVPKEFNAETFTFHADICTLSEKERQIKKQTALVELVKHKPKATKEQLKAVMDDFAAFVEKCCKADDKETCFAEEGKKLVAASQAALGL

Consider “AU1GC6U4CU3AGC6C3CC5T (AUGCUCUAGCCCCT; modified nucleotides, further chemistry not given here) [functional molecule]”, for which the “binding to human albumin” value is listed as “bound specifically with human albumin”.
